The test system of assay [1] is mice. The experiment in a line: Elevated plus-maze test of anxiolytic effect. Type of assay: in vivo, mouse. The conditions noted are these: for Minimum Effective Dose (anxiolytic effect): IP. As for the experimental part:
In the present invention, the anxiolytic effects can be evaluated by the elevated plus-maze test, which has been developed as a method for evaluating anxiety-related behaviors to screen anxiolytic drugs and has been widely used (FIG. 1). Specifically, the test is performed as follows: a candidate substance for an anxiolytic drug is orally or intraperitoneally administered to a mouse, the mouse is placed in an elevated plus-maze 30 minutes after the administration, and the potency of the anxiolytic effect is evaluated based on the number of entries into the open arms and the change in the time spent on the open arms.
The elevated plus-maze includes two open arms (25×5 cm) and two closed arms (25×5×15 cm), which were joined to a central platform 50 cm high above the floor (see FIG. 1). Because the closed arms were surrounded by barriers, a mouse could safely walk in the closed arms in spite of the elevated position. On the other hand, because the open arms were not surrounded by barriers, a mouse walking along the open arms would feel anxious that it might fall from the elevated position. Therefore, the more time the mouse spent in the open arms, or the greater the number of entries into the open arms, the less anxious the mouse would feel. Thus, the anxiolytic activity is determined based on these indices.
A mouse was placed on a portion of the central platform facing one of the open arms, and the test was started. During the 5-minute test time, the cumulative time spent in the open arms (abbr.: time in open arms), the number of visits to the open arms (abbr.: visits to open arms), and the total number of visits to the either arms (abbr.: total visits) were recorded. The percentage of the time spent in the open arms and the percentage of the number of visits to the open arms were calculated as indices of anxiety.
The data obtained from the elevated plus-maze test were represented as the mean values±SEM. The data were analyzed by one-way ANOVA, followed by the Fisher test for multiple comparisons.
Each of VYLPR (SEQ ID NO:1) (Example 1), YLPR (SEQ ID NO:2) (Example 2), and LPR (SEQ ID NO:3) (Example 3) dissolved in physiological saline was administered intraperitoneally (IP) or orally (PO) to mice (n=3 to 14) in the amount shown in each figure before the mice were placed on the central portion of the elevated plus-maze. The percentage of the time spent in the open arms, the percentage of the number of visits to the open arms, and the total number of visits to the both arms (total visits) were compared between groups administered each peptide and the control group (0 mg/kg). The results are shown in FIGS. 2 to 5, FIGS. 7 and 8, and Table 1.
Trypsin-digested ovalbumin was used as an active ingredient and was administered intraperitoneally and orally to test the anxiolytic effects using the open arms in the same manner as in Examples 1 to 3.
An aqueous solution of ovalbumin (20 mg/ml) was heated (10-min boiling), and bovine trypsin (E:S=1:100) was added to carry out a reaction at 37° C. for 5 hours. As a result, VYLPR (SEQ ID NO:1) was produced at a high efficiency of 44 mol %. When the aqueous solution of ovalbumin was not pre-heated, VYLPR (SEQ ID NO:1) was below the detection limit and was hardly produced even with the trypsin treatment. TPCK-treated Trypsin from bovine pancreas (Sigma) was used as the bovine trypsin. […]

Assay [2] concerns mice. Description: Elevated plus-maze test with peptide given in combination with an inhibitor or receptor antagonist. It counts as in vivo, mouse. Here is the method:
An anxiolytic peptide of the invention was administered in combination with the inhibitor or one of the antagonists for various receptors as follows, and tests were conducted in the same manner as in Example 1 in order to identify the effect of each antagonist on the anxiolytic activity of the peptide of the present invention, i.e., to identify the receptors on which the peptide of the invention acts.
COX inhibitor: Indomethacin, 10 mg/kg
DP1-R antagonist: BWA868C, 60 μg/kg

Regarding “Tyr-Leu-Pro-Arg (YLPR; Designed peptide)”, the “Minimum Effective Dose (anxiolytic effect)” value (from here on “Minimum Effective Dose”) in the assay with mice [1] came to 0.3 mg/kg. For “Undigested ovalbumin: Undigested ovalbumin (with and without heat treatment) used as the control for the trypsin digest [reference compound]”, the anxiolytic effect result in the assay on mice [1] (intraperitoneal administration) and in the assay with mice [1] (oral administration) was “did not show anxiolytic effects” each time. For the substance “Val-Tyr-Leu-Pro-Arg (VYLPR; Designed peptide)”, the “anxiolytic effect in the presence of prostaglandin DP1 receptor antagonist” value in the assay with mice [2] (BWA868C 60 μg/kg, FIG. 10A) is “inhibited”. Further, the “anxiolytic effect in the presence of adenosine A2A receptor antagonist” value in the assay with mice [2] (SCH58261 0.1 mg/kg, FIG. 10B) is reported as “inhibited”. Also, in the assay on mice [1], the “Minimum Effective Dose” value was found to be 0.3 mg/kg. For the substance Leu-Pro-Arg [LPR], the “Minimum Effective Dose” value in the assay with mice [1] was 0.3 mg/kg.

For the origin of these results see patent publication US8946164B2, “Bioactive peptide” (Kyoto University, priority 2010, dated 2015).
